Measurements published in patent US20080171662A1, “Aminocarbonyl-Substituted Thiensulfonylamino(Thio)Carbonyl-Triazolin(Ethi)Ones, Processes For Their Preparation And Their Use” (priority 2004, published 2008).

CCOc1nn(C(=O)NS(=O)(=O)c2c(C(=O)N(C)C)csc2C)c(=O)n1C [Example 1, 5-ethoxy-4-methyl-2-[(4-dimethylaminocarbonyl-2-methylthien-3-yl)sulfonylaminocarbonyl]-2,4-dihydro-3H-1,2,4-triazol-3-one] showed a melting point of 162 °C.
